{"source": "patent US20180256460A1", "about": "“STAIN-REMOVING ORAL COMPOSITION” (LOTTE CO., LTD., priority 2014, published 2018)", "key": {"[1]": {"assay": "Stain-removing effect of saliva solutions containing chewing gum components, color difference of stained hydroxyapatite discs", "details": "for Stain-removing effect of the acidulant itself: color difference: 0.1% in saliva solution, pH 6, compared to the saliva alone (pH 7), FIG. 3A, n=5, p<0.05", "experimental": "Each research volunteer was asked to masticate one tablet of salivary gum (Morita Corporation), and about 30 ml of the saliva was collected respectively. The collected saliva was all combined in one container (beaker) so that personal information could not be traced. The collected saliva was centrifuged at 2,500×g for 10 minutes, and the supernatant was used as a saliva sample for a solvent in a testing solution.\nThe amount of the saliva collected when masticating 2 tablets of gum for 5 minutes was 15 ml on average. The sugar alcohol or acidulant was dissolved under stirring in a weight ratio corresponding to 2 tablets of the sample chewing gum into 15 ml of the saliva sample processed with the procedure of 2. That is, to 15 ml of a saliva sample, 2.31 g (15.4%) of the sugar alcohol or 15 mg (0.1%) of the acidulant was added and dissolved. Sodium metaphosphate was dissolved under stirring in an amount needed for each testing. For pH adjustment, an aqueous solution of hydrochloric acid or sodium hydroxide was used.\n3% green tea extract, 1% black tea extract, and 1% instant coffee were dissolved under stirring in mineral water at 100° C. to obtain a staining liquid (instant coffee; Ajinomoto General Foods, Inc., mineral water; Suntory Foods Limited).\nHydroxyapatite discs (10 mm×10 mm, APP-100, HOYA Corporation) the surfaces of which were uniformly polished with a P400 waterproof abrasive paper were used as human enamel models. The hydroxyapatite discs after polishing were subjected to color measurement by the method of 6. as mentioned below to obtain reference values for the discs. The hydroxyapatite discs were separately put in a 12-well plate (IWAKI&Co., Ltd.) and immersed in 2.5 ml of the saliva sample and allowed to stand still at 37° C. for 2 hours so that saliva pellicles were formed on the surface. The discs were washed with water, and immersed in 2.5 ml of the staining liquid each added in each well of a fresh 12-well plate, and moderately shook at 37° C. for 24 hours so that stains were formed. The hydroxyapatite discs after staining were subjected to color measurement by the method in 6. mentioned below to obtain measurement values after staining. Hydroxyapatite discs after staining subjected to color measurement were placed in a fresh 12-well plate, and 2.5 ml of the saliva sample, the saliva solution containing chewing gum components, or the chewing gum extract solution was dispensed in each well, then the discs were immersed for 5 minutes or 35 minutes. The immersed discs were washed with distilled water, and extra water was wiped off with paper to dry the discs, followed by color measurement.\nA spectrophotometer (CM-700d, Konica Minolta, Inc.) was set upright so that the colorimetric direction was upward. Hydroxyapatite discs before the pellicle formation, after staining or after the solution treatment were allowed to stand still above the colorimetric light source, and color measurements were performed 3 times successively, and the average value was employed. Color measurements were performed on the L*axis (lightness), the a*axis (chroma: red-green axis), and the b*axis (chroma: yellow-blue axis) of the L*a*b*color space based on JIS Z 8722:2009, under the condition of SCI including reflected light. […] E*ab was calculated according to the following expressions. […]"}, "[2]": {"details": "aqueous system; cited from earlier work"}}, "note": "“Also recorded” adds a separate entry of the source.", "data": [{"molecule": "O=C(O)CC(O)(CC(=O)O)C(=O)O", "note": "[citric acid]", "values": [{"measurement": "Stain-removing effect of the acidulant itself: color difference", "setting": "[1]", "value": "a decrease in the color difference was observed"}]}, {"molecule": "O=C(O)CC(O)C(=O)O", "note": "(centres unmarked) [malic acid]", "values": [{"measurement": "Stain-removing effect of the acidulant itself: color difference", "setting": "[1]", "value": "a decrease in the color difference was observed"}]}, {"molecule": "O=P(=O)O", "note": "[metaphosphoric acid]", "values": [{"measurement": "pKa", "setting": "[2]", "value": "as small as not measurable in an aqueous system"}]}, {"molecule": "sodium metaphosphate", "values": [{"measurement": "Stain-removing effect: color difference of stained hydroxyapatite discs", "setting": "[1]; 0.066% or 0.2% in the saliva, compared to the saliva alone, FIG. 1, n=6, p<0.05", "value": "a significant difference was observed compared to the case where the discs were treated with the saliva alone; also recorded: a significant decrease in the color difference was observed"}, {"measurement": "Influence of pH on stain removal: transition of the color difference", "setting": "[1]; saliva with 0.1% sodium metaphosphate, pH 5 compared to pH 7, FIG. 3C, n=6, p<0.05", "value": "a significant difference in the transition of the color difference was observed"}]}]}
